Data as given in patent US12631645B2, “Detection of BCL-2 family heterodimer complexes and use thereof” (The U.S.A., as represented by the Secretary, Department of …, priority 2019, dated 2026).

Assays:
BAK-BAX oligomerization = experiment: Heterodimer complexes in AMO-1 xenograft tumor lysates after treatment, BAK-BAX; format: in vivo, mice; settings: 16 hours after treatment, 100 mg/kg orally (FIG. 7A)
Description: The immunoassays described herein were built on the Luminex xMAP multiplex technology platform using magnetic bead capture. Washes were performed with a 96-well magnetic plate washer (ELx405), BioTek). During incubation, the plates were placed on an orbital titer plate shaker (VWR International). Liquid handling was performed manually with calibrated, adjustable, precision multichannel pipettes (Rainin 8-Channel). All assays were performed in 96-well plates (BioPlex, BioRad) at 25° C.±3° C. by adding 10 μL of blocking solution (Myriad RBM) and 30 μL of calibrator, control, or unknown sample. Antibody-coupled beads were sonicated for 5 seconds and then vortexed at medium speed for 10 to 20 seconds to disperse the beads, and 10 μL beads (250 beads/analyte/μL) were added to each well per analyte. Plates were protected from light (Black Microplate Lid, VWR) and incubated for 1 hour at 25° C.±3° C. with shaking. […] After a final wash, 100 μL of assay buffer was added to each well and plates were read on a Luminex 200 reader.
Heterodimer complexes were measured in AMO-1 and MV11 xenograft tumor lysates using the immunoassay described in Examples 3 and 4. […] The level of cleaved caspase-3 was also measured. […] Heterodimer composition was also measured in blood or bone marrow samples of 11 patients with CLL.

AMO-1 xenograft tumors = experiment: Response of multiple myeloma model AMO-1 to BH3 mimetic treatment; format: in vivo, mice; settings: 100 mg/kg orally, 16 hours (FIG. 7A)
MV411 xenograft tumors = experiment: Response of AML model MV411 to BH3 mimetic treatment; format: in vivo, mice; settings: MV411 xenograft tumor lysates, 24 hours after treatment; NSC798846 25 mg/kg intravenously, NSC766270 100 mg/kg orally (FIG. 7B)
BAX-BAK heterodimer = experiment: Heterodimer immunoassay, BAX-BAK in lysates of treated cancer cell lines; format: cell-based, human; parameters: BAX-BAK heterodimers: dose or concentration left out as unconfirmed; settings: for BAX-BAK levels: HCT116 and MOLT-4 cancer cell lines (FIG. 4C)
Description: (§1) The immunoassays described herein were built on the Luminex xMAP multiplex technology platform using magnetic bead capture. Washes were performed with a 96-well magnetic plate washer (ELx405), BioTek). During incubation, the plates were placed on an orbital titer plate shaker (VWR International). Liquid handling was performed manually with calibrated, adjustable, precision multichannel pipettes (Rainin 8-Channel). All assays were performed in 96-well plates (BioPlex, BioRad) at 25° C.±3° C. by adding 10 μL of blocking solution (Myriad RBM) and 30 μL of calibrator, control, or unknown sample. Antibody-coupled beads were sonicated for 5 seconds and then vortexed at medium speed for 10 to 20 seconds to disperse the beads, and 10 μL beads (250 beads/analyte/μL) were added to each well per analyte. Plates were protected from light (Black Microplate Lid, VWR) and incubated for 1 hour at 25° C.±3° C. with shaking. Plates were washed with wash solution (Myriad RBM), and then 40 μL of detection antibody-biotin conjugate was added and plates were incubated for an additional hour with shaking. After incubation with the antibody-biotin conjugate, 40 μL of R-phycoerythrin-labeled streptavidin (Invitrogen) was added, and plates were incubated for 30 minutes with shaking. After a final wash, 100 μL of assay buffer was added to each well and plates were read on a Luminex 200 reader.
(§2) Further studies were conducted to evaluate the effect of BH3 mimetics on Bcl-2 family heterodimer levels and induction of apoptosis.
(§3) Similar studies were performed in AMO-1 plasmacytoma cells and Mv4-11 acute myeloid leukemia cells. […] The level of cleaved caspase-3 was also determined.

cleaved caspase-3 = experiment: Cleaved caspase-3 level in treated cancer cell lines; format: cell-based, human; parameters: dose or concentration left out as unconfirmed
Description: as §2, §3

Bcl-2-BIM complexes = molecular target: T1, Bcl-2-BIM complexes (Homo sapiens, UniProt P10415); experiment: Heterodimer complexes in AMO-1 xenograft tumor lysates after treatment, Bcl-2-BIM; format: in vivo, mice; settings: 16 hours after treatment, NSC798846 25 mg/kg intravenously, NSC766270 100 mg/kg orally (FIG. 7A)
T1 construct: from tissue; host or cells: AMO-1 xenograft tumors grown in mice
T1 sequence (P10415 whole entry, one chain of several): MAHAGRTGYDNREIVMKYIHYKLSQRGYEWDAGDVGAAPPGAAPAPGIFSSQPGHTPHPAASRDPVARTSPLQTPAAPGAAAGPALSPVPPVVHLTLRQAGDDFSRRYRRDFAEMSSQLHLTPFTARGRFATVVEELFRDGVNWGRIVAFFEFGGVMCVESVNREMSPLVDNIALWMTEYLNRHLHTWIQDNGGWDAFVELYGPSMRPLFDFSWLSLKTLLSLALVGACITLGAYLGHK
Description: as §1

BIM = settings: AMO-1 xenograft tumor lysates, 16 hours after 25 mg/kg intravenously (FIG. 7A)
Description: The effect of two different BH3 mimetics on heterodimer composition in the AMO-1 and MV411 models was next evaluated. […] Heterodimer complexes were measured in tumor lysates prepared from AMO-1 mice 16 hours after treatment and from MV411 mice 24 hours after treatment.

AMO-1 cell line = settings: read-out: IC50 (sensitivity to S63845), Kotschy et al., Nature 2016; cited from earlier work
AMO1 xenografts = settings: intravenous injection; Kotschy et al.; cited from earlier work
[1] = test system: MV4-11 human AML xenograft model; settings: in vivo; compared with AMO1 xenografts; Kotschy et al.; cited from earlier work
BIM-Mcl-1 heterodimer = molecular target: T2, BIM-Mcl-1 heterodimer (Homo sapiens, UniProt Q07820); experiment: Heterodimer immunoassay, BIM-Mcl-1 in lysates of treated cancer cell lines; format: cell-based; parameters: BIM-Mcl-1 heterodimers: dose or concentration left out as unconfirmed
T2 construct: Within cells, anti-apoptotic proteins exist primarily as complexed heterodimers with pro-apoptotic proteins; endogenous in cells; host or cells: AMO-1, MV4-11 (Mv411), HCT116, MOLT-4
T2 sequence (Q07820 whole entry, one chain of several): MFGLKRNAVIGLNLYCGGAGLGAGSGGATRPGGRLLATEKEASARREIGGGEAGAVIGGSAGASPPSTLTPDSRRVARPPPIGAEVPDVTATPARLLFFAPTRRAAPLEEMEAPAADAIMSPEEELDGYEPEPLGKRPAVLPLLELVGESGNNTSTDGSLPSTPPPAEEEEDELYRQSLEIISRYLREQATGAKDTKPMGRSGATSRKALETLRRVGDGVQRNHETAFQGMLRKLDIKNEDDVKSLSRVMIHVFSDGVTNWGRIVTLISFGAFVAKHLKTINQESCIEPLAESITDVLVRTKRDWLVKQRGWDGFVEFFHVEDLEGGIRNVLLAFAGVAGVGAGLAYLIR
Description: as §1, §2, §3

BIM-Bcl-xL heterodimer = BIM-Bcl-xL heterodimer (Homo sapiens, UniProt Q07817); experiment: Heterodimer immunoassay, BIM-Bcl-xL in lysates of treated cancer cell lines; format: cell-based; parameters: BIM-Bcl-xL heterodimeric complexes: dose or concentration left out as unconfirmed
Chain of BIM-Bcl-xL heterodimer (Q07817 whole entry, one chain of several): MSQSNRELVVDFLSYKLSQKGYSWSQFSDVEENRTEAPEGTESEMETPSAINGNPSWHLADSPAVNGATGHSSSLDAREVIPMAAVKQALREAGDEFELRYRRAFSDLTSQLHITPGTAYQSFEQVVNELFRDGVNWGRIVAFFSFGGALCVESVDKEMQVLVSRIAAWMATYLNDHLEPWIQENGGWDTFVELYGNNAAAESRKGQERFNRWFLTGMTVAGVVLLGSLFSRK
Description: as §1, with “After incubation with the antibody-biotin conjugate, 40 μL of R-phycoerythrin-labeled streptavidin (Invitrogen) was added, and plates were incubated for 30 minutes with shaking.” left out, “reader. […]” for “reader.”
as §3

[2] = Mv4-11 cells, treated with vs untreated (FIG. 5D, 5E)
[3] = AMO-1 cells, treated vs untreated (FIG. 5B, 5C)
[4] = HCT116 and MOLT-4 cancer cell lines (FIG. 4D)
[5] = Mv4-11 cells, treated vs untreated (FIG. 5D, 5E)

BIM-Mcl-1 levels (BIM-Mcl-1 heterodimer; AMO-1 and Mv411 cell lines, in vitro (FIG. 3A))	BIM-Mcl-1 levels (BIM-Mcl-1 heterodimer; HCT116 and MOLT-4 cancer cell lines (FIG. 4B))	BIM-Mcl-1 heterodimers (BIM-Mcl-1 heterodimer; [2])	BIM-Bcl-xL levels (BIM-Bcl-xL heterodimer; HCT116 and MOLT-4 cancer cell lines (FIG. 4A))	BIM-Bcl-xL heterodimeric complexes (BIM-Bcl-xL heterodimer; Mv4-11 cells, treated vs untreated (FIG. 5E))	Compound	BAK-BAX oligomerization (mitochondrial poration marker), subsequent caspase-3 activation and cell death (BAK-BAX oligomerization)	effectiveness of treatment in multiple myeloma model AMO-1 (AMO-1 xenograft tumors)	disrupting the balance of BIM complexes and initiating caspase-3 activation and cell death (MV411 xenograft tumors)	BAX-BAK heterodimers (BAX-BAK heterodimer; AMO-1 cells, treated with vs untreated (FIG. 5B))	BAX-BAK levels (BAX-BAK heterodimer)	BAX-BAK heterodimers (BAX-BAK heterodimer; [2])	cleaved caspase-3 (cleaved caspase-3; [3])	cleaved caspase-3 (cleaved caspase-3; [4])	cleaved caspase-3 (cleaved caspase-3; [5])	Bcl-2-BIM complexes (Bcl-2-BIM complexes)	BIM (overall) (BIM)	IC50 (AMO-1 cell line)	anti-tumor activity in AMO1 xenografts (AMO1 xenografts)	activity in MV4-11 human AML xenograft model [1]
–	–	–	–	–	CC1(C)CCC(CN2CCN(c3ccc(C(=O)NS(=O)(=O)c4ccc(NCC5CCOCC5)c([N+](=O)[O-])c4)c(Oc4cnc5[nH]ccc5c4)c3)CC2)=C(c2ccc(Cl)cc2)C1 [NSC766270]	did not initiate	ineffective	equally effective	–	–	–	–	–	–	–	–	–	–	–
–	–	–	–	–	Cc1c(-c2c(-c3ccc(F)o3)sc3ncnc(O[C@H](Cc4ccccc4OCc4ccnn4CC(F)(F)F)C(=O)O)c23)ccc(OCCN2CCN(C)CC2)c1Cl [S63845]	–	–	equally effective	increase	increased	significant increase	increase	increased activation	significant increase	disruption	overall degradation	< 0.1 µM	dose-dependent anti-tumor activity	less potent activity
largely unaffected	increased	increase	disrupted	decrease	CC1(C)CCC(c2ccc(Cl)cc2)=C(CN2CCN(c3ccc(C(=O)NS(=O)(=O)c4ccc(N[C@H](CCN5CCOCC5)CSc5ccccc5)c(S(=O)(=O)C(F)(F)F)c4)cc3)CC2)C1 [novitoclax]	–	–	–	–	increased	increase	did not lead to a significant increase	increased activation	increase	–	–	–	–	–
